Reference: ChEMBL document CHEMBL5620359, “Discovery of 2,5-disubstituted furan derivatives featuring a benzamide motif for overcoming P-glycoprotein mediated multidrug resistance in MCF-7/ADR cell” (Eur J Med Chem, 2023)

What was measured:
Assay type in all cases: functional
NCI/ADR-RES [1] = experiment: Cytotoxicity against human MCF7ADR cells assessed as cell survival rate at 5 uM incubated for 48 hrs by CCK8 assay relative to control
MCF7 = experiment: Cytotoxicity against human MCF7 cells assessed as cell survival rate at 5 uM incubated for 48 hrs by CCK8 assay relative to control
NCI/ADR-RES [2] = experiment: Reversal activity against doxorubicin-mediated resistance in human MCF7ADR cells assessed as reversal fold by measuring ratio of doxorubicin IC50 to doxorubicin IC50 in presence of test compound at 5 uM incubated for 48 hrs by CCK8 assay
NCI/ADR-RES [3] = experiment: Reversal activity against doxorubicin-mediated resistance in human MCF7ADR cells assessed as reversal fold by measuring ratio of doxorubicin IC50 to doxorubicin IC50 in presence of test compound at 1 uM incubated for 48 hrs by CCK8 assay

Row | SMILES | Activity (NCI/ADR-RES [1]) [%] | Activity (MCF7) [%] | fold change (FC) (NCI/ADR-RES [2]) | fold change (FC) (NCI/ADR-RES [3])
1 | COc1cc2c(cc1OC)CN(C(=O)c1ccc(-c3ccccc3NC(=O)c3cccc(Cl)c3)o1)CC2 | 80.4 | 53 | 45 | 
2 | COc1cc2c(cc1OC)CN(C(=O)c1ccc(-c3cccc(NC(=O)c4ccc(Cl)cc4)c3)o1)CC2 | 85.5 | 88.1 | 18 | 
3 | COc1cc2c(cc1OC)CN(C(=O)c1ccc(-c3ccc(NC(=O)c4ccc(N(C)C)cc4)cc3)o1)CC2 | 71.8 | 98.6 | 40 | 
4 | COc1cc2c(cc1OC)CN(C(=O)c1ccc(-c3ccc(NC(=O)c4ccccc4OC)cc3)o1)CC2 | 98.6 | 99.7 | 24.2 | 
5 | COc1ccc(CNc2ccc(-c3ccc(C(=O)N4CCc5cc(OC)c(OC)cc5C4)o3)cc2)cc1 | 98.2 | 99.7 | 5.2 | 
6 | COc1cc2c(cc1OC)CN(C(=O)c1ccc(-c3cccc(NC(=O)c4ccco4)c3)o1)CC2 | 75.9 |  | 30.4 | 5.2
7 | COc1cc2c(cc1OC)CN(CCc1ccc(NC(=O)c3cc(OC)c(OC)cc3NC(=O)c3cnc4ccccc4c3)cc1)CC2 | 46.7 | 80.7 | 221.1 | 
8 | COc1cc2c(cc1OC)CN(C(=O)c1ccc(-c3cccc(NC(=O)c4cccc([N+](=O)[O-])c4)c3)o1)CC2 | 76.5 | 69.6 | 23 | 
9 | COc1cc2c(cc1OC)CN(C(=O)c1ccc(-c3ccccc3NC(=O)c3ccccc3OC)o1)CC2 | 74.5 | 81.2 | 20.8 | 
10 | COc1ccc(C(=O)Nc2cccc(-c3ccc(C(=O)N4CCc5cc(OC)c(OC)cc5C4)o3)c2)cc1 | 62.1 | 32.4 | 72.6 | 
11 | COc1cc2c(cc1OC)CN(C(=O)c1ccc(-c3ccc(NC(=O)c4ccc(F)cc4)cc3)o1)CC2 | 70.6 | 53.6 | 53.5 | 
12 | COc1cc2c(cc1OC)CN(C(=O)c1ccc(-c3ccccc3NC(=O)c3ccccc3)o1)CC2 | 70.9 |  | 7.5 | 
13 | COc1cccc(C(=O)Nc2ccccc2-c2ccc(C(=O)N3CCc4cc(OC)c(OC)cc4C3)o2)c1 | 83 | 81.2 | 26.6 | 
14 | COc1cccc(C(=O)Nc2cccc(-c3ccc(C(=O)N4CCc5cc(OC)c(OC)cc5C4)o3)c2)c1 | 75 | 59.4 | 59.8 | 
15 | COc1cc2c(cc1OC)CN(C(=O)c1ccc(-c3ccc(NC(=O)c4ccccc4Cl)cc3)o1)CC2 | 82.5 | 65.5 | 66.9 | 
16 | COc1cc2c(cc1OC)CN(C(=O)c1ccc(-c3ccc(NC(=O)c4c(F)c(F)c(F)c(F)c4F)cc3)o1)CC2 | 98.2 | 92.4 | 45.4 | 
17 | COc1cc(OC)cc(C(=O)Nc2cccc(-c3ccc(C(=O)N4CCc5cc(OC)c(OC)cc5C4)o3)c2)c1 | 73.9 | 63 | 30.1 | 
18 | COc1cc2c(cc1OC)CN(C(=O)c1ccc(-c3cccc(NC(=O)c4cccs4)c3)o1)CC2 | 61.4 |  | 46.6 | 
19 | COc1cc2c(cc1OC)CN(C(=O)c1ccc(-c3ccc(NC(=O)c4ccc(C#N)cc4)cc3)o1)CC2 | 56.7 | 85.6 | 41 | 
20 | COc1cc2c(cc1OC)CN(C(=O)c1ccc(-c3cccc(NC(=O)c4ccccc4[N+](=O)[O-])c3)o1)CC2 | 62.6 | 73.4 | 19.5 | 
21 | COc1cc2c(cc1OC)CN(C(=O)c1ccc(-c3ccc(NC(=O)c4ccc(OC(F)(F)F)cc4)cc3)o1)CC2 | 72.8 | 61.3 | 118.3 | 
22 | COc1cc2c(cc1OC)CN(C(=O)c1ccc(-c3ccc(NC(=O)c4ccc(-c5ccccc5)cc4)cc3)o1)CC2 | 95 | 98.7 | 17.1 | 
23 | COc1cc2c(cc1OC)CN(C(=O)c1ccc(-c3ccc(NC(=O)c4ccc([N+](=O)[O-])cc4)cc3)o1)CC2 | 82.2 | 68.9 | 50.9 | 
24 | COc1cc2c(cc1OC)CN(C(=O)c1ccc(-c3ccccc3NC(=O)c3cccc([N+](=O)[O-])c3)o1)CC2 | 66.2 | 67.5 | 6.1 | 
25 | COc1cc2c(cc1OC)CN(C(=O)c1ccc(-c3ccc(NC(=O)c4cccc(Cl)c4)cc3)o1)CC2 | 83.3 | 74.8 | 267.6 | 

Row | SMILES | Activity (NCI/ADR-RES [1]) [%] | Activity (MCF7) [%] | fold change (FC) (NCI/ADR-RES [2]) | fold change (FC) (NCI/ADR-RES [3])
26 | COc1ccc(NC(=O)Nc2ccc(-c3ccc(C(=O)N4CCc5cc(OC)c(OC)cc5C4)o3)cc2)cc1 | 98.2 | 99.2 |  | 
27 | COc1cc2c(cc1OC)CN(C(=O)c1ccc(-c3ccc(NC(=O)c4ccc(Cl)cc4)cc3)o1)CC2 | 79.8 | 50.1 | 124 | 
28 | COc1cc2c(cc1OC)CN(C(=O)c1ccc(-c3ccc(NC(=O)c4ccccc4F)cc3)o1)CC2 | 99.2 | 77.1 | 11 | 
29 | COc1cc2c(cc1OC)CN(C(=O)c1ccc(-c3ccccc3NC(=O)c3ccccc3Cl)o1)CC2 | 96.3 | 66.5 | 29.2 | 
30 | COc1cc2c(cc1OC)CN(C(=O)c1ccc(-c3cccc(NC(=O)c4ccccc4Cl)c3)o1)CC2 | 80.8 | 67.3 | 32.8 | 
31 | COc1ccc(S(=O)(=O)N(c2ccc(-c3ccc(C(=O)N4CCc5cc(OC)c(OC)cc5C4)o3)cc2)S(=O)(=O)c2ccc(OC)cc2)cc1 | 94.6 | 92.6 | 21.9 | 
32 | COc1ccc(CCN(C)CCCC(C#N)(c2ccc(OC)c(OC)c2)C(C)C)cc1OC (centres undefined) | 75 | 99.6 |  | 
33 | COc1cc2c(cc1OC)CN(C(=O)c1ccc(-c3ccc(NC(=O)c4ccccc4[N+](=O)[O-])cc3)o1)CC2 | 99.5 | 97.8 | 18.6 | 
34 | COc1cc2c(cc1OC)CN(C(=O)c1ccc(-c3cccc(NC(=O)c4ccccc4)c3)o1)CC2 | 76.1 |  | 45.8 | 
35 | COc1cc2c(cc1OC)CN(C(=O)c1ccc(-c3cccc(NC(=O)c4ccccc4OC)c3)o1)CC2 | 65 | 53.6 | 44.2 | 
36 | COc1cc2c(cc1OC)CN(C(=O)c1ccc(-c3ccc(NC(=O)c4ccc(Br)cc4)cc3)o1)CC2 | 96.3 | 97.2 | 48.4 | 
37 | COc1cc2c(cc1OC)CN(C(=O)c1ccc(-c3ccc(NC(=O)c4cccc([N+](=O)[O-])c4)cc3)o1)CC2 | 71 | 79.2 | 53.5 | 
38 | COc1cc2c(cc1OC)CN(C(=O)c1ccc(-c3ccccc3NC(=O)c3ccc([N+](=O)[O-])cc3)o1)CC2 | 99.6 | 86.2 | 24.3 | 
39 | C/C=C/C[C@@H](C)[C@@H](O)[C@H]1C(=O)N[C@@H](CC)C(=O)N(C)CC(=O)N(C)[C@@H](CC(C)C)C(=O)N[C@@H](C(C)C)C(=O)N(C)[C@@H](CC(C)C)C(=O)N[C@@H](C)C(=O)N[C@H](C)C(=O)N(C)[C@@H](CC(C)C)C(=O)N(C)[C@@H](CC(C)C)C(=O)N(C)[C@@H](C(C)C)C(=O)N1C [CYCLOSPORINE] | 89.4 | 87.5 | 59.1 | 
40 | COc1cc2c(cc1OC)CN(C(=O)c1ccc(-c3cccc(NC(=O)c4ccc([N+](=O)[O-])cc4)c3)o1)CC2 | 99.7 | 99.8 | 32.6 | 
41 | COc1cc(OC)cc(C(=O)Nc2ccccc2-c2ccc(C(=O)N3CCc4cc(OC)c(OC)cc4C3)o2)c1 | 97.3 | 70.5 | 13.1 | 
42 | COc1cccc(C(=O)Nc2ccc(-c3ccc(C(=O)N4CCc5cc(OC)c(OC)cc5C4)o3)cc2)c1 | 77.1 | 81.2 | 97.8 | 
43 | COc1cc2c(cc1OC)CN(C(=O)c1ccc(-c3ccc(NC(=O)c4ccccc4)cc3)o1)CC2 | 73.5 |  | 221.1 | 5.3
44 | COc1cc2c(cc1OC)CN(C(=O)c1ccc(-c3ccccc3NC(=O)c3ccc(Cl)cc3)o1)CC2 | 84.1 | 83 | 24 | 
45 | COc1ccc(C(=O)Nc2cccc(-c3ccc(C(=O)N4CCc5cc(OC)c(OC)cc5C4)o3)c2)c(OC)c1 | 64.9 | 84.7 | 17.5 | 
46 | COc1cc2c(cc1OC)CN(C(=O)c1ccc(-c3ccc(NC(=O)c4cccc(F)c4)cc3)o1)CC2 | 78.2 | 75.1 | 19.6 | 
47 | COc1ccc(-c2ccc(C(=O)N3CCc4cc(OC)c(OC)cc4C3)o2)cc1 | 94.1 |  | 9.1 | 
48 | COc1ccc(C(=O)Nc2ccc(-c3ccc(C(=O)N4CCc5cc(OC)c(OC)cc5C4)o3)cc2)c(OC)c1 | 66.7 | 63.7 | 36.8 | 
49 | COc1cc2c(cc1OC)CN(C(=O)c1ccc(-c3ccc(NC(=O)c4ccc(C(C)(C)C)cc4)cc3)o1)CC2 | 61.1 | 44.9 | 164 | 
50 | COc1cc2c(cc1OC)CN(C(=O)c1ccc(-c3cccc(NC(=O)c4cccc(Cl)c4)c3)o1)CC2 | 97.5 | 85.3 | 41 | 
